Measured values published in publication PMC8648872, “A host-directed macrocyclic peptide therapeutic for MDR gram negative bacterial infections” (Scientific Reports, 2021).
In brackets after ≈: the same amount, converted by molar mass. Where a SMILES comes first, the peptide text is derived from it. Bridges are numbered along the chain shown (N, C = ends).

Key:
[1] = test system: E. coli BAA-2340 (KPC-2); assay: microbe, parasite or virus in culture; assay type: cell-based; settings: E. coli BAA-2340, KPC-2
Method: (§1) Bacterial strains were obtained from American Type Culture Collection. K. pneumoniae strains included BAA-1705 (blaKPC-2, hypermucoid), BAA-2146 (blaNDM-1), BAA-700603 (SHV-18, extended spectrum β-lactamase, ESBL), and BAA-1706 (non-CRE reference strain). E. coli strains included BAA-2340 (blaKPC-2), BAA-2471 (blaNDM-1), and ML35 (non-CRE reference strain).
(§2) Minimum inhibitory concentration (MIC) assays were performed ± 50% heat-inactivated mouse serum using Clinical and Laboratory Standards Institute (CLSI; document M07-A9) protocols. Bacteria (5 × 10^5 CFU/ml) were incubated with antibiotics or peptide for 20 h at 37 °C, and bacterial growth was determined by A620 using a SpectraMax M5e plate reader.

[2] = test system: E. coli BAA-2471 (NDM-1); assay: microbe, parasite or virus in culture; assay type: cell-based
Method: as §1, §2

[3] = test system: E. coli ML35; assay: microbe, parasite or virus in culture; assay type: cell-based; settings: E. coli ML35, no MDR factor
Method: as §1, §2

[4] = test system: K. pneumoniae 700603 (ESBL); assay: microbe, parasite or virus in culture; assay type: cell-based
Method: as §1, §2

[5] = test system: K. pneumoniae BAA-1705 (KPC-2); assay: microbe, parasite or virus in culture; assay type: cell-based; settings: 20 h, 37 °C
Method: as §1, §2

[6] = test system: K. pneumoniae BAA-1706; assay: microbe, parasite or virus in culture; assay type: cell-based; settings: K. pneumoniae BAA-1706, no MDR factor
Method: as §1, §2

[7] = test system: K. pneumoniae BAA-2146 (NDM-1); assay: microbe, parasite or virus in culture; assay type: cell-based
Method: as §1, §2

[8] = test system: Kp-1705 (K. pneumoniae BAA-1705); assay: Kp-1705 bacteremic sepsis, survival; assay type: in vivo, BALB/c mice; settings: for long term (≥ 28 days) survival: Kp-1705 i.p. in BALB/c mice
Method: (§3) BALB/c mice (Jackson Laboratories) 8–10 weeks of age were acclimated (3–5 to a cage for at least 5 days prior to infection) in a thermostatically controlled room with 12 h light/dark cycle. Cryopreserved K. pneumoniae cells were thawed and adjusted to a density of 6–10 × 10^8 CFU/ml, confirmed by plating on trypticase soy agar (TSA) plates. E. coli BAA-2340 was grown to log-phase in trypticase soy broth, pelleted, washed with PBS, and resuspended in PBS at 0.5–1 × 10^9 CFU/ml. Mice were infected by i.p. injection of 2–5 × 10^8 CFU of Kp-1705 or 3–6 × 10^7 CFU of E. coli BAA-2340 using a 28 g needle in a volume of 0.5 ml. Post-infection, mice were observed three times a day for at least 4 days and then daily for 28 days. Mice were euthanized when they became moribund. All experiments used both male and female mice and were repeated at least twice.

[9] = test system: E. coli BAA-2340; assay: CRE E. coli BAA-2340 septicemia, survival; assay type: in vivo, BALB/c mice; settings: KPC+ E. coli BAA-2340 i.p., saline controls 10%
Method: as §3

[10] = test system: plasma cytokines; assay: Plasma cytokines in uninfected (sham infected) mice; assay type: in vivo, BALB/c mice; settings: single i.p. 1.25 mg/kg
Method: EDTA-anticoagulated blood was collected aseptically by terminal cardiac puncture and analyzed for complete blood cell count using an Element HT5 hematology analyzer (Heska). Blood plasma and clarified peritoneal lavage were prepared by two-step centrifugation described previously. Plasma cytokine levels were quantified using a mouse-specific MILLIPLEX MAP kit (Millipore Cat# MCYTMAG-70K) as described.
Supplemental Fig. 3. Transient stimulation of cytokines by MTD12813. Sham infected mice were injected i.p with PBS and treated i.p. 1 h later with 1.25 mg/kg MTD12813 (M) or saline (S). Four or 24 h post sham infection, animals were euthanized and plasma samples quantified by multiplex cytokine analysis. P values calculated using ANOVA with Uncorrected Fisher’s LSD comparing saline and […]

[11] = Peptide stability in human serum; assay type: in vitro ADME; settings: 90% (vol/vol) human serum, 37 °C, C18 RP-UPLC with PDA detector, read-out: peptide remaining intact
Method: MTD12813 (final concentration of 100 µg/ml) was added to either 90% human EDTA plasma or 90% human serum and incubated at 37 °C for 48 h. Samples were processed by addition of 10% HOAc and 5% ACN (final concentrations) at time 0 and 48 h, and MTD12813 was quantified by C18 RP-HLPC on an Acquity H-Class UPLC with an analytical PDA detector using Empower 3 software (Waters). All samples were performed with technical replicates and analyzed by UPLC in duplicate and the experiment repeated once. […] A time 0 h sample was collected, and the remaining suspension incubated at 37 °C for 24 h. Samples were processed by addition of 5% formic acid/5% acetonitrile, vortexed, and clarified at 22,000×g for 10 min. Supernatant MTD12813 was then quantified by LC–MS/MS as described in PK section above. All samples were performed with technical replicates and analyzed by LC–MS/MS in duplicate.

[12] = Stability in aqueous media; assay type: physicochemical; settings: including acidic solutions as low as pH 2.0; preliminary, data not shown
[13] = 50% heat inactivated mouse serum
[14] = CLSI, 20 h, 37 °C, A620, no serum

CC[C@H](C)[C@@H]1NC(=O)[C@@H]2CSSC[C@H](NC(=O)[C@H]([C@@H](C)CC)NC(=O)[C@@H]3CSSC[C@H](NC1=O)C(=O)N[C@@H](C(C)C)C(=O)NCC(=O)N[C@@H](CCCNC(=N)N)C(=O)NCC(=O)N3)C(=O)N[C@@H](C(C)C)C(=O)N[C@@H](CCCNC(=N)N)C(=O)N[C@@H](CCCNC(=N)N)C(=O)N[C@@H](CCCNC(=N)N)C(=O)N2 [MTD12813] (cyclo(CICVGRGCICVRRR); disulfide 1-10, 3-8)
MIC [1, 13]: > 100 µg/mL
MIC [1, 14]: 6.25 µg/mL (≈ 3.98 µM)
MIC [2, 13]: 100 µg/mL (≈ 63.6 µM)
MIC [2, 14]: 3.13 µg/mL (≈ 1.99 µM)
MIC [3, 13]: > 100 µg/mL
MIC [3, 14]: 3.13 µg/mL (≈ 1.99 µM)
MIC [4, 13]: > 100 µg/mL
MIC [4, 14]: 6.25 µg/mL (≈ 3.98 µM)
MIC ([5]; CLSI M07-A9, 5 × 10^5 CFU/ml, A620, no serum): 6.25 µg/mL (≈ 3.98 µM)
MIC ([5]; in the presence of 50% heat inactivated mouse serum, A620): > 100 µg/mL
MIC [6, 13]: > 100 µg/mL
MIC [6, 14]: 3.13 µg/mL (≈ 1.99 µM)
MIC [7, 13]: > 100 µg/mL
MIC [7, 14]: 6.25 µg/mL (≈ 3.98 µM)
long term (≥ 28 days) survival ([8]; single i.p. dose 1.25 mg/kg 1 h p.i.): 100%
long term (≥ 28 days) survival ([8]; single i.p. dose 5 mg/kg 1 h p.i.): 100%
long term survival, timing of treatment ([8]; Kp-1705 i.p., single i.p. 1.25 mg/kg 1 h after infection (+1 h)): survived long term
long term survival, timing of treatment ([8]; Kp-1705 i.p., single i.p. 1.25 mg/kg 1 h before infection (−1 h)): survived long term
long term survival, timing of treatment ([8]; Kp-1705 i.p., single i.p. 1.25 mg/kg 3 h after infection (+3 h), P = 3.9 × 10^–3): half
long term survival, timing of treatment ([8]; Kp-1705 i.p., single i.p. 1.25 mg/kg 3 h prior to infection (−3 h)): nearly equivalent efficacy
survival benefit versus saline ([8]; Kp-1705 i.p., single i.p. dose 0.5 mg/kg 1 h p.i., P = 1.1 × 10^–3): survival benefit was still statistically significant
survival ≥ 28 days ([9]; single i.p. injection 1.25 mg/kg 1 h p.i.): 100%
survival ≥ 28 days ([9]; single i.p. injection 5 mg/kg 1 h p.i.): 100%
plasma IL-5, IL-6 and CXCL1 versus vehicle ([10]; 4 h collection point): significantly elevated
plasma IL-5, IL-6 and CXCL1 ([10]; 24 h): returned to baseline
remaining at 48 h, 100 µg/ml [11]: > 95%
stability in aqueous media [12]: exceedingly stable
